Here are results for 2 compounds from patent publication US7759382B2, “Acylated amino acid amidyl pyrazoles and related compounds” (Elan Pharmaceuticals, Inc., priority 2003, dated 2010).

The test system of the assay is β-amyloid peptide release and/or its synthesis. In words: inhibition of β-amyloid peptide release and/or its synthesis (test not specified). The class given is cell-based. The following applies: statement in words only; no assay or value given.

Turning to `CC(C)(C)c1cc(NC(=O)c2cccc(N(C=O)Cc3cc(F)cc(F)c3)c2)[nH]n1` [Example 110], the “inhibits β-amyloid peptide release and/or its synthesis” value is reported as “inhibits β-amyloid peptide release and/or its synthesis”. For the compound `CC(C)(C)c1cc(NC(=O)c2cccc(Nc3cc(F)cc(F)c3)c2)[nH]n1` [Example 111, N-(5-tert-Butyl-2H-pyrazol-3-yl)-3-(3,5-difluoro-phenylamino)-benzamide], the “inhibits β-amyloid peptide release and/or its synthesis” value is “inhibits β-amyloid peptide release and/or its synthesis”.
